We go through one molecule from paper PMC3262757 (Chemistry Central Journal, 2011).

In one test the test system is JNK2. Format: cell-based.
In another test the test system is JNK1. Type of test: cell-based.

Structures are written as SMILES.

In the case of `CCOc1nc(NC(=O)Cc2cc(OC)c(NC(C)=O)cc2OC)cc(N)c1C#N` [compound 2, 2-(4-acetylamino-2,5-dimethoxyphenyl)-N-(4-amino-5-cyano-6-ethoxypyridin-2-yl)acetamide], the IC50 in the test with JNK2 and with JNK1 was around 1500 nM each time.
